The values that follow come from patent publication US12043600B2, “Microbiocidal compounds” (SYNGENTA CROP PROTECTION AG, priority 2018, dated 2024).

Data set [1] relates to Alternaria solani. In words: Alternaria solani/Tomato/Leaf Disc (Early Blight). Format: in vivo. To be noted: foliar, tomato leaf disc, compared to untreated control. The procedure:
Tomato leaf disks cv. Baby are placed on agar in multiwell plates (24-well format) and sprayed with the formulated test compound diluted in water. The leaf disks are inoculated with a spore suspension of the fungus 2 days after application. The inoculated leaf disks are incubated at 23° C./21° C. (day/night) and 80% rh (relative humidity) under a light regime of 12/12 h (light/dark) in a climate cabinet and the activity of a compound is assessed as percent disease control compared to untreated when an appropriate level of disease damage appears on untreated check disk leaf disks (5-7 days after application).

The subject of data set [2] is Phaeosphaeria nodorum (Septoria nodorum). In words: Phaeosphaeria nodorum (Septoria nodorum)/Wheat/Leaf Disc Preventative (Glume Blotch). Format: in vivo. The note with it: Parastagonospora nodorum, foliar, wheat leaf disc preventative, compared to untreated control. The method, boiled down: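 Wheat cv. Kanzler leaf discs on agar were sprayed with formulated compound diluted in water and inoculated with P. nodorum spores 2 days later. Discs kept at 20 °C, 75% rh, 12 h light/dark; percent disease control versus untreated scored 5–7 days after application.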

In data set [3] the test system is Monographella nivalis (Microdochium nivale). In words: Monographella nivalis (Microdochium nivale)/Liquid Culture (Foot Rot Cereals). It is filed as cell-based. The note with it: liquid culture, compared to untreated control. A digest of the protocol: (§1)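 First, the test compound in DMSO is placed in the wells. Next, potato dextrose broth seeded with conidia taken straight from cryogenic storage is added, and the culture is left to grow.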

Data set [4] deals with Mycosphaerella arachidis (Cercospora arachidicola). In words: Mycosphaerella arachidis (Cercospora arachidicola)/Liquid Culture (Early Leaf Spot). Format: cell-based. To be noted: liquid culture, compared to untreated control. The method, boiled down: as §1
Data set [5] deals with Phytophthora infestans. Briefly: whole plant or invertebrate. Format: in vivo. To be noted: in Solanum lycopersicum, foliar, read-out: control of Phytophthora infestans.
The subject of data set [6] is Plasmopara viticola. In words: whole plant or invertebrate. The note with it: foliar, read-out: control of Plasmopara viticola. It is filed as in vivo.
The subject of data set [7] is Puccinia recondita f. sp. tritici. In words: Puccinia recondita f. sp. tritici/Wheat/Leaf Disc Preventative (Brown Rust). It is filed as in vivo. The note with it: foliar, 200 ppm, wheat leaf disc preventative, compared to untreated control, read-out: control of Puccinia recondita f. sp. tritici.
The subject of data set [8] is Magnaporthe grisea (Pyricularia oryzae). Briefly: whole plant or invertebrate. It is filed as in vivo. The note with it: foliar, read-out: control of Magnaporthe grisea.
Data set [9] concerns Pyrenophora teres. Briefly: Pyrenophora teres/Barley/Leaf Disc Preventative (Net Blotch). To be noted: foliar, 200 ppm, barley leaf disc preventative, compared to untreated control, read-out: control of Pyrenophora teres. It is filed as in vivo. A digest of the protocol:
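Formulated compound, diluted in water, sprayed onto barley cv. Hasso leaf segments on agar; spore suspension inoculation followed 2 days after application. Results expressed as percentage disease control.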

Data set [10] concerns Mycosphaerella graminicola (Septoria tritici). Briefly: Mycosphaerella graminicola (Septoria tritici)/Liquid Culture (Septoria Blotch). Format: cell-based. To be noted: Zymoseptoria tritici; 20 ppm; liquid culture; compared to untreated control. The method, boiled down: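 Conidia from cryogenic storage mixed into potato dextrose broth and added to microtiter wells already holding DMSO solutions of test compound. Activity expressed as percentage disease control.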

Data set [11] deals with Botryotinia fuckeliana (Botrytis cinerea). In words: Botryotinia fuckeliana (Botrytis cinerea)/Liquid Culture (Gray Mould). It is filed as cell-based. The note with it: liquid culture, compared to untreated control. The procedure: Conidia of the fungus from cryogenic storage are directly mixed into nutrient broth (Vogels broth). After placing a (DMSO) solution of test compound into a microtiter plate (96-well format), the nutrient broth containing the fungal spores is added.

In data set [12] the test system is Glomerella lagenarium (Colletotrichum lagenarium). Briefly: Glomerella lagenarium (Colletotrichum lagenarium)/Liquid Culture (Anthracnose). It is filed as cell-based. To be noted: Colletotrichum orbiculare, liquid culture, compared to untreated control.
Data set [13] has as its system Phakopsora pachyrhizi. Briefly: Phakopsora pachyrhizi/Soybean/Preventative (Soybean Rust). It is filed as in vivo. The note with it: foliar, 288 h, 200 ppm, soybean leaf disc preventative, compared to untreated control, read-out: control of Phakopsora pachyrhizi.
Data set [14] has as its system Thanatephorus cucumeris (Rhizoctonia solani). Briefly: Thanatephorus cucumeris (Rhizoctonia solani)/Liquid Culture (Foot Rot, Damping-Off). Format: cell-based. To be noted: liquid culture, compared to untreated control. The protocol:
Mycelia fragments of a newly grown liquid culture of the fungus are directly mixed into nutrient broth (PDB potato dextrose broth). After placing a (DMSO) solution of the test compounds into a microtiter plate (96-well format), the nutrient broth containing the fungal material is added.

The test system of data set [15] is Blumeria graminis f. sp. tritici (Erysiphe graminis f. sp. tritici). In words: Blumeria graminis f. sp. tritici/Wheat/Leaf Disc Preventative (Powdery Mildew on Wheat). Format: in vivo. The note with it: foliar, wheat leaf disc preventative, compared to untreated control. The method, boiled down: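 Wheat cv. Kanzler leaf segments on agar sprayed with formulated compound, inoculated with powdery mildew 1 day later and held at 20° C, 60% rh (24 h dark, then 12 h light/12 h dark). Percent disease control versus untreated scored 6-8 days after application.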

In data set [16] the test system is Puccinia recondita f. sp. tritici. Briefly: Puccinia recondita f. sp. tritici/Wheat/Leaf Disc Curative (Brown Rust). Format: in vivo. The note with it: foliar, wheat leaf disc curative, compared to untreated control. The method, boiled down: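 Curative leaf-disc test on wheat cv. Kanzler segments on agar, spore-inoculated and kept dark at 19° C, 75% rh; formulated compound in water applied 1 day after inoculation. Incubated at 19° C, 75% rh, 12 h light/12 h dark; percent disease control versus untreated scored 6-8 days after application.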

`CO/C=C(\Oc1cc(-n2ccc(C#CC3CC3)n2)ccc1C)C(=O)OC` [Compound E-1, methyl (Z)-2-[5-[3-(2-cyclopropylethynyl)pyra-zol-1-yl]-2-methyl-phenoxy]-3-methoxy-prop-2-enoate] showed a melting point of 158 to 162 °C. In [1], the pest or weed control at 200 ppm is no less than 80%. This compound came in with a pest or weed control at 200 ppm in data set [2] of no less than 80%. Besides, the inhibition of growth at 20 ppm in [3] was no less than 80%. The inhibition of growth at 20 ppm in data set [4] was no less than 80%. The pest or weed control at 200 ppm in data set [5] was no less than 80%. In data set [6], the pest or weed control at 200 ppm was no less than 80%. Moreover, the pest or weed control at 200 ppm in data set [7] is no less than 80%. In data set [8], the pest or weed control at 200 ppm was no less than 80%. Also, the pest or weed control at 200 ppm in [9] was no less than 80%. Further, the inhibition of growth at 20 ppm in data set [10] is no less than 80%.

As to `CCOc1cnn(-c2ccc(C)c(O/C(=C\OC)C(=O)OC)c2)c1` [Compound E-52, methyl (Z)-2-[5-(4-ethoxypyrazol-1-yl)-2-methyl-phenoxy]-3-methoxy-prop-2-enoate], the inhibition of growth at 20 ppm in data set [11], in [12], in data set [3], in data set [4], in [14] and in data set [10] was no less than 80% throughout. For the same compound, the pest or weed control at 200 ppm in data set [13] was no less than 50%; in data set [5], no less than 80%; in data set [6] it was no less than 80%; in [7] it was no less than 80%; in data set [8] it was no less than 80%.

For the compound `CO/C=C(\Oc1cc(-n2cc(SC(C)C)cn2)ccc1C)C(=O)OC` [Compound E-53, methyl (Z)-2-[5-(4-isopropylsulfanylpyrazol-1-yl)-2-methyl-phenoxy]-3-methoxy-prop-2-enoate], the inhibition of growth at 20 ppm in data set [11], in data set [12], in [3], in [4], in [14] and in data set [10] was no less than 80% each time. Moreover, the pest or weed control at 200 ppm in data set [2], in data set [5], in data set [6], in [7] and in data set [8] was no less than 80% each time.

The compound `CO/C=C(\Oc1cc(-n2ccc(C3(C)CC3)n2)ccc1C)C(=O)OC` [Compound E-82, methyl (Z)-3-methoxy-2-[2-methyl-5-[3-(1-methylcyclopropyl)pyra-zol-1-yl]phenoxy]prop-2-enoate] came in with a melting point of 83 to 86 °C. The compound further gave a pest or weed control at 200 ppm in data set [1] of no less than 80%. The inhibition of growth at 20 ppm in data set [11] was no less than 80%. In [12], this compound gave an inhibition of growth at 20 ppm of no less than 80%. The same compound gave a pest or weed control at 200 ppm in data set [15] of no less than 80%. For the same compound, the pest or weed control at 200 ppm in data set [2] was no less than 80%. Moreover, in data set [3], the inhibition of growth at 20 ppm was no less than 80%. This compound displayed an inhibition of growth at 20 ppm in data set [4] of no less than 80%. The pest or weed control at 200 ppm in [13] was no less than 50%. Besides, in data set [5], the pest or weed control at 200 ppm is no less than 80%. Also, the pest or weed control at 200 ppm in data set [6] was no less than 80%. This compound also displayed a pest or weed control at 200 ppm in [16] of no less than 80%. In addition, the pest or weed control at 200 ppm in [7] is no less than 80%. Moreover, the pest or weed control at 200 ppm in [8] is no less than 80%. The pest or weed control at 200 ppm in data set [9] is no less than 80%. Also, the inhibition of growth at 20 ppm in data set [10] was no less than 80%.

Consider `CO/C=C(\Oc1cc(-n2ccc(Br)n2)ccc1C)C(=O)OC` [Compound E-83, methyl (Z)-2-[5-(3-bromopyrazol-1-yl)-2-methyl-phenoxy]-3-methoxy-prop-2-enoate], for which the melting point lay within 106 to 110 °C. Also, in data set [1], the pest or weed control at 200 ppm was no less than 80%. In data set [12], the inhibition of growth at 20 ppm is no less than 80%. Further, the pest or weed control at 200 ppm in [15] was no less than 80%. This compound also registered a pest or weed control at 200 ppm in [2] of no less than 80%. Besides, the inhibition of growth at 20 ppm in [3] is no less than 80%. This compound also showed an inhibition of growth at 20 ppm in data set [4] of no less than 80%. The pest or weed control at 200 ppm in [5] was no less than 80%. The pest or weed control at 200 ppm in data set [6] is no less than 80%. For the same compound, the pest or weed control at 200 ppm in [7] is no less than 80%. The pest or weed control at 200 ppm in data set [8] is no less than 80%. In data set [9], the pest or weed control at 200 ppm was no less than 80%. For the same compound, the inhibition of growth at 20 ppm in data set [10] is no less than 80%.

Consider `CO/C=C(\Oc1cc(-n2ncc(Br)n2)ccc1C)C(=O)OC` [Compound F-1, methyl (Z)-2-[5-(4-bromotriazol-2-yl)-2-methyl-phenoxy]-3-methoxy-prop-2-enoate], for which the pest or weed control at 200 ppm in data set [1], in [15], in data set [2], in data set [5], in [6] and in data set [16] was no less than 80% each time. Moreover, the pest or weed control at 200 ppm in data set [7], in [8] and in data set [9] was no less than 80% throughout. Moreover, the inhibition of growth at 20 ppm in [12], in [3], in data set [4] and in data set [10] was no less than 80% throughout.

For `CO/C=C(\Oc1cc(-n2ncc(C3CCCC3)n2)ccc1C)C(=O)OC` [Compound F-5, methyl (Z)-2-[5-(4-cyclopentyltriazol-2-yl)-2-methyl-phenoxy]-3-methoxy-prop-2-enoate], the pest or weed control at 200 ppm in data set [1], in [15], in data set [2], in data set [5], in data set [6] and in data set [16] was no less than 80% throughout. In addition, the pest or weed control at 200 ppm in [7], in data set [8] and in [9] was no less than 80% in each case. The inhibition of growth at 20 ppm in data set [12], in data set [3], in data set [4] and in data set [10] was no less than 80% in each case.

Consider `CO/C=C(\Oc1cc(-n2ncc(C(C)=NO)n2)ccc1C)C(=O)OC` [Compound F-13, methyl (Z)-2-[5-[4-(N-hydroxy-C-methyl-carbonimidoyl)triazol-2-yl]-2-methyl-phenoxy]-3-methoxy-prop-2-enoate], for which the melting point lay within 146 to 150 °C. The compound further gave a pest or weed control at 200 ppm in data set [1] of no less than 80%. Moreover, in data set [12], the inhibition of growth at 20 ppm is no less than 80%. In data set [15], the pest or weed control at 200 ppm was no less than 80%. In data set [2], this compound returned a pest or weed control at 200 ppm of no less than 80%. In data set [3], this compound showed an inhibition of growth at 20 ppm of no less than 80%. In data set [4], this compound yielded an inhibition of growth at 20 ppm of no less than 80%. In addition, the pest or weed control at 200 ppm in [5] is no less than 80%. For the same compound, in data set [6], the pest or weed control at 200 ppm is no less than 80%. Moreover, in data set [16], the pest or weed control at 200 ppm is no less than 80%. Besides, the pest or weed control at 200 ppm in data set [7] is no less than 80%. Moreover, the pest or weed control at 200 ppm in data set [8] is no less than 80%. Also, the pest or weed control at 200 ppm in data set [9] was no less than 80%. The compound also showed an inhibition of growth at 20 ppm in data set [10] of no less than 80%.
